# Columns and labels:
# RARα = target: T1, RARα (Homo sapiens, UniProt P10276); experiment: ligand binding assay, RARα; settings: read-out: RAR Bind. Ki α
# T1 sequence (P10276 1-462): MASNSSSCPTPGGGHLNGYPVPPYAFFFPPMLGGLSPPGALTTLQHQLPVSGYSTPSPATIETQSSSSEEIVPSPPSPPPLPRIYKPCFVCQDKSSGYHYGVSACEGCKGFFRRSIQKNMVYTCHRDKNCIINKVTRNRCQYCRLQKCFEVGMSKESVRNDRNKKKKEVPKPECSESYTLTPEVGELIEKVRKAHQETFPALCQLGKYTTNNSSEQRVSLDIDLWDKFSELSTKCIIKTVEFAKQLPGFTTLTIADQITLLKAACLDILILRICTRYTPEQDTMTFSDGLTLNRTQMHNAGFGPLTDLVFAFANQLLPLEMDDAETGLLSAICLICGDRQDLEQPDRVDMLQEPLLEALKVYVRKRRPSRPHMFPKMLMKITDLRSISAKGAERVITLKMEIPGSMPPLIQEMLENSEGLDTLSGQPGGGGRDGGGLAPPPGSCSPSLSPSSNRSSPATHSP
# Source text: (§1) Specifically, one such assay is a chimeric receptor transactivation assay which tests for agonist-like activity in the R RAPE and RAR7 receptor subtypes, and which is based on work published by Feigner, P. L. and Holm, M (1989) Focus, 112 is described in detail in U.S. Pat. No. 5,455,265. The specification of U.S. Pat. No. 5,455,265 is hereby expressly incorporated by reference. A holoreceptor transactivation assay and a ligand binding assay which measure the antagonist/agonist like activity of the compounds of the invention, or their ability to bind to the several retinoid receptor subtypes, respectively, are described in published PCT Application No. WO WO93/11755 (particularly on pages 30-33 and 37-41) published on Jun. 24, 1993, the specification of which is also incorporated herein by reference. A detailed experimental procedure for holoreceptor transactivations has been described by Heyman et al. Cell 68, 397-406, (1992); Allegretto et al. J. Biol. Chem. 268, 26625-26633, and Mangelsdorf et al. The Retinoids: Biology, Chemistry and Medicine, pp 319-349, Raven Press Ltd., New York, which are expressly incorporated herein by reference. The results obtained in this assay are expressed in EC50 numbers, as they are also in the chimeric receptor transactivation assay. The results of the ligand binding assay are expressed in Ki numbers. (See Cheng et al. Biochemical Pharmacology Vol. 22 pp 3099-3108, expressly incorporated herein by reference.)
# (§2) Generally speaking, in the tables disclosing the results of transactivation and binding assays the numbers in parentheses indicate efficacy as a percentage compared to the standard compound, (2E,4E,1′S,2′S)-3-methyl-5-[2′-methyl-2′-(5,5,8,8-tetramethyl-5,6,7,8-tetrahydro-naphthalen-2-yl)cyclopropyl]-penta-2,4-dienoic acid and the other numbers indicate the measured EC50 and K; in nanomolar concentration.
# RARβ = target: T2, RARβ (Homo sapiens, UniProt P10826); experiment: ligand binding assay, RARβ; settings: read-out: RAR Bind. Ki β
# T2 sequence (P10826 1-455): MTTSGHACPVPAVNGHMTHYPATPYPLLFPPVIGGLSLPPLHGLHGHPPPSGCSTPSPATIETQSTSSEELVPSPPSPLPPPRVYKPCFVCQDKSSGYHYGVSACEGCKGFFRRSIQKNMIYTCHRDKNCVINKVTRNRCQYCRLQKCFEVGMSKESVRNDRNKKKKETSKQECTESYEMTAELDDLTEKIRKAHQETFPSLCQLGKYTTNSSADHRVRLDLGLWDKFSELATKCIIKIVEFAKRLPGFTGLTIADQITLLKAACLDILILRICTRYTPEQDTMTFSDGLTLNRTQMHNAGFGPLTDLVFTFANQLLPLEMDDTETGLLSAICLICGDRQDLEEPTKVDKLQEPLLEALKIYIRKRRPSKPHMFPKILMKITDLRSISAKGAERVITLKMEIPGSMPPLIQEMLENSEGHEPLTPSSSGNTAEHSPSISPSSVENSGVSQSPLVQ
# Source text: as §1, §2
# RARγ = target: T3, RARγ (Homo sapiens, UniProt P13631); experiment: ligand binding assay, RARγ; settings: read-out: RAR Bind. Ki γ
# T3 sequence (P13631 1-454): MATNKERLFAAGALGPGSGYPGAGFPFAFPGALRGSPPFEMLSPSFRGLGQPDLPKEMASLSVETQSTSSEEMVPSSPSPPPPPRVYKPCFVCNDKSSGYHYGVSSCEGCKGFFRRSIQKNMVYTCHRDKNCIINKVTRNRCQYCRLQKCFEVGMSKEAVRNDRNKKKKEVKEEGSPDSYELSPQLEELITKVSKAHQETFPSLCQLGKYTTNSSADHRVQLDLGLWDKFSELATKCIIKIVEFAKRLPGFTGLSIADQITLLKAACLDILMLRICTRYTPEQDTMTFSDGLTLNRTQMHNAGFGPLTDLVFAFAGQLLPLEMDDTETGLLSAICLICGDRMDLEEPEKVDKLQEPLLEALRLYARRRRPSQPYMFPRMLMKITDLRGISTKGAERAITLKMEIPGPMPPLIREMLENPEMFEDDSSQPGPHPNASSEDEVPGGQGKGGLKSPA
# Source text: as §1, §2
structure (smiles),measurement,setting,value
CCOc1cc2c(cc1\C(C)=C(F)/C=C/C(C)=C/C(=O)O)C(C)=CCC2(C)C,Ki,RARα,261 nM
same,Ki,RARβ,359 nM
same,Ki,RARγ,1.2 µM
"CCC1=CC(C)(C)Oc2cc(OC)c(\C(C)=C/C=C/C(C)=C/C(=O)O)cc21 [Compound 42, 7-(4-Ethyl-7-methoxy-2,2-dimethyl-2H-chromen-6-yl)-3-methyl-octa-2E,4E,6Z-trienoic acid]",Ki,RARα,8900 nM
same,Ki,RARβ,9900 nM
same,Ki,RARγ,> 10 µM
"COc1cc2c(cc1\C(C)=C/C=C/C(C)=C/C(=O)O)C(C(C)C)=CC(C)(C)O2 [Compound 43, 7-(4-Isopropyl-7-methoxy-2,2-dimethyl-2H-chromen-6-yl)-3-methyl-octa-2E,4E,6Z-trienoic acid]",Ki,RARα,243 nM
same,Ki,RARβ,378 nM
same,Ki,RARγ,2.5 µM
"CC/C(=C/C=C/C(C)=C/C(=O)O)c1cc2c(cc1OC)OC(C)(C)C=C2C(C)C [Compound 44, 7-(4-Isopropyl-7-methoxy-22-dimethyl-2H-chromen-6-yl)-3-methyl-nona-2E,4E,6Z-trienoic acid]",Ki,RARα,215 nM
same,Ki,RARβ,617 nM
same,Ki,RARγ,3.5 µM
"CCOc1cc2c(cc1\C(C)=C/C=C/C(C)=C/C(=O)O)C(CC)=CC(C)(C)O2 [Compound 45, 7-(7-Ethoxy-4-ethyl-2,2-dimethyl-2H-chromen-6-yl)-3-methyl-octa-2E,4E,6Z-trienoic acid]",Ki,RARα,3 nM
same,Ki,RARβ,196 nM
same,Ki,RARγ,2.3 µM
"CCOc1cc2c(cc1\C(=C/C=C/C(C)=C/C(=O)O)CC)C(C)=CC(C)(C)O2 [Compound 46, 7-(7-Ethoxy-2,2,4-trimethyl-2H-chromen-6-yl)-3-methyl-nona-2E,4E,6Z-trienoic acid]",Ki,RARα,623 nM
same,Ki,RARβ,614 nM
same,Ki,RARγ,3.4 µM
"COc1c(\C(C)=C/C=C/C(C)=C/C(=O)O)cc2c(c1Cl)OC(C)(C)C=C2C(C)C [Compound 49, 7-(8-Chloro-4-isopropyl-7-methoxy-2,2-dimethyl-2H-chromen-6-y)-3-methyl-octa-2E,4E,6Z-trienoic acid]",Ki,RARα,1000 nM
same,Ki,RARβ,4100 nM
same,Ki,RARγ,> 10 µM
"CCOc1c(\C(C)=C/C=C/C(C)=C/C(=O)O)cc2c(c1Cl)OC(C)(C)C=C2C(C)C [Compound 50, 7-(8-Chloro-4-isopropyl-7-ethoxy-2,2-dimethyl-2H-chromen-6-yl)-3-methyl-octa-2E,4E,6Z-trienoic acid]",Ki,RARα,738 nM
same,Ki,RARβ,1300 nM
same,Ki,RARγ,5.9 µM
CCOc1c(\C(=C/C=C/C(C)=C/C(=O)O)CC)cc2c(c1Cl)OC(C)(C)C=C2C(C)C [Compound 51],Ki,RARα,422 nM
same,Ki,RARβ,1400 nM
same,Ki,RARγ,4.9 µM
"CCC1=CC(C)(C)Oc2cc(OC)c(\C(C)=C(F)/C=C/C(C)=C/C(=O)O)cc21 [Compound 120, 7-(4Ethyl-7-methoxy-2,2-dimethyl-2H-chromen-6-yl)-6-fluoro-3-methyl-octa-2E,4E,6E-trienoic acid]",Ki,RARα,4100 nM
same,Ki,RARβ,8100 nM
same,Ki,RARγ,> 10 µM
"COc1cc2c(cc1\C(C)=C(F)/C=C/C(C)=C/C(=O)O)C(C(C)C)=CC(C)(C)O2 [Compound 121, (2E,4E,6E)-6-Fluoro-7-(4-isopropyl-7-methoxy-2,2-dimethyl-2H-chromen-6-yl)-3-methyl-octa-2,4,6-trienoic acid]",Ki,RARα,692 nM
same,Ki,RARβ,2100 nM
same,Ki,RARγ,8.8 µM
"COc1cc2c(cc1\C(C)=C(F)/C=C/C(C)=C/C(=O)O)C(C(C)(C)C)=CC(C)(C)O2 [Compound 122, 7-(4-tert-Butyl-7-methoxy-2,2-dimethyl-2H-chromen-6-yl)-6-fluoro-3-methyl-octa-2E,4E,6E-trienoic acid]",Ki,RARα,800 nM
same,Ki,RARβ,1400 nM
same,Ki,RARγ,3.9 µM
"CCOc1cc2c(cc1\C(C)=C(F)/C=C/C(C)=C/C(=O)O)C(CC)=CC(C)(C)O2 [Compound 123, 7-(7-Ethoxy-4-ethyl-2,2-dimethyl-2H-chromen-6-yl)-6-fluoro-3-methyl-octa-2E,4E,6E-trienoic acid]",Ki,RARα,> 10000 nM
same,Ki,RARβ,> 10000 nM
same,Ki,RARγ,> 10 µM
"CCOc1cc2c(cc1\C(C)=C(F)/C=C/C(C)=C/C(=O)O)C(c1ccccc1)=CC(C)(C)O2 [Compound 127, (2E,4E,6E)-7-(7-Ethoxy-2,2-dimethyl-4-phenyl-2H-chromen-6-yl)-6-fluoro-3-methyl-octa-2,4,6-trienoic acid]",Ki,RARα,3700 nM
same,Ki,RARβ,1400 nM
same,Ki,RARγ,2.6 µM
"CCCOc1cc2c(cc1\C(C)=C(F)/C=C/C(C)=C/C(=O)O)C(c1ccccc1)=CC(C)(C)O2 [Compound 128, (2E,4E,6E)-7-(2,2-Dimethyl-4-phenyl-7-propoxy-2H-chromen-6-yl)-6-fluoro-3-methyl-octa-2,4,6-trienoic acid]",Ki,RARα,302 nM
same,Ki,RARβ,388 nM
same,Ki,RARγ,0.759 µM
"CC/C(=C(F)/C=C/C(C)=C/C(=O)O)c1cc2c(cc1OC)OC(C)(C)C=C2C [Compound 129, 6-Fluoro-7-(7-methoxy-2,2,4-trimethyl-2H-chromen-6-yl)-3-methyl-nona-2E,4E,6E-trienoic acid]",Ki,RARα,177 nM
same,Ki,RARβ,490 nM
same,Ki,RARγ,4.7 µM
"CC/C(=C(F)/C=C/C(C)=C/C(=O)O)c1cc2c(cc1OC)OC(C)(C)C=C2C(C)C [Compound 130, 6-Fluoro-7-(4-isopropyl-7-methoxy-2,2-dimethyl-2H-chromen-6-yl)-3-methyl-nona-2E,4E,6E-trienoic acid]",Ki,RARα,133 nM
same,Ki,RARβ,547 nM
same,Ki,RARγ,2.7 µM
"CC/C(=C(F)/C=C/C(C)=C/C(=O)O)c1cc2c(cc1OC)OC(C)(C)C=C2C(C)(C)C [Compound 131, 7-(4-tert-Butyl-7-methoxy-2,2-dimethyl-2H-chromen-6-yl)-6-fluoro-3-methyl-nona-2E,4E,6E-trienoic acid]",Ki,RARα,837 nM
same,Ki,RARβ,843 nM
same,Ki,RARγ,3.3 µM
"CCOc1cc2c(cc1\C(CC)=C(F)/C=C/C(C)=C/C(=O)O)C(C)=CC(C)(C)O2 [Compound 132, 7-(7-Ethoxy-2,2,4-trimethyl-2H-chromen-6-yl)-6-fluoro-3-methyl-nona-2E,4E,6E-trienoic acid]",Ki,RARα,148 nM
same,Ki,RARβ,548 nM
same,Ki,RARγ,2.4 µM
CCOc1cc2c(cc1\C(CC)=C(F)/C=C/C(C)=C/C(=O)O)C=CCC2(C)C [Compound A-77],Ki,RARα,301 nM
same,Ki,RARβ,371 nM
"CCOc1cc2c(cc1\C(C)=C(F)/C=C/C(C)=C/C(=O)O)C(C(C)C)=CCC2(C)C [Compound A-79, (2E,4E,6E)-6-Fluoro-3-(4,4-dimethylethoxy-1-isopropyl-3,4-dihydronaphthalen-7-yl)-3-methyl-2.4,6-octa-trienoic acid]",Ki,RARα,615 nM
same,Ki,RARγ,3.5 µM

# From patent US6887896B1, “7-[(7-Alkoxy)-chrom-3-en-6-yl]-heptatrienoic acid and 7-[(3-alkoxy)-5,6-dihydronaphthalen-2-yl]-heptatrienoic acid derivatives having serum glucose reducing activity” (Allergan, Inc., priority 2003, dated 2005)
